row,SMILES,melting point [°C]
1,CC(C)Cn1nnc(-c2cccc(-c3ccnc4c(C(=O)c5cccs5)cnn34)c2)n1,141
2,Fc1ccc2[nH]cc(CCCNCCOc3cccc4[nH]ccc34)c2c1,70 to 73
3,C=CC(O)c1ccc([N+](=O)[O-])cc1 (centres undefined),55
4,CC#CC(=O)Nc1cccc(-c2ccnc3c(C(=O)c4cccs4)cnn23)c1,202 to 203
5,COc1ccc2c(C)c3n(c2c1)CCCC3NC=O (centres undefined),181 to 182
6,O=[N+]([O-])c1c(F)cc(Cl)c2nc(Cl)sc12,110 to 112
7,COc1cc2cnn(CCCCl)c(=O)c2cc1OC,185 to 187
8,CC(=O)c1ccc(NS(=O)(=O)N(C)C)c(Oc2ccc(F)cc2F)c1,80 to 82
9,C=C(Cl)CS(=O)(=O)NC(=O)c1nc(OC)cc(OC)n1,125 to 130
10,CC(Br)C(Br)C(=O)NC(=O)Nc1ccc(Cl)c(Cl)c1 (centres undefined),196 to 197
11,O=[N+]([O-])c1ccc(CCN2CCN(c3ccc([N+](=O)[O-])cc3)CC2)cc1,143 to 145
12,O=C(N[C@@H]1CN2CCC1CC2)c1cccc2c1cc1n2CCCC1,163 to 164
13,O=C(O)c1sccc1OC(F)F,98 to 100
14,CNc1nc2ccccc2cc1[N+](=O)[O-],160
15,Nc1nc2c(ncn2C2CC(CO)C2CO)c(=O)[nH]1 (centres undefined),91 to 92
16,CC(=O)Nc1ccc(C=CC(=O)C(C)CC(=O)O)cc1 (centres undefined),189 to 190
17,O=c1cc(-c2ccncc2)nc2n1CCN2,318 to 320
18,"N#Cc1cccc(C2C3=C(CCS3)NC3=C2C(=O)CCC3)c1 (single isomer, unassigned; (+))",> 250
19,CCCCC[C@H]1CC[C@H](c2ccc(C#Cc3ccc(OC(F)F)cc3)cc2)CC1,62
20,COc1ccc(C#Cc2cc3ncc(C#N)c(Nc4cc(OC)c(Cl)cc4Cl)c3s2)cc1,249 to 250
21,Cc1c(Cc2ccccc2)c(=O)oc2cc(OCC3=NNN(C)N3)cc(OCC3=NNN(C)N3)c12,71 to 76
22,CCc1nc(C(=O)O)c(Cl)c(N)c1F,144 to 145
23,C=CC(C)Nc1c(-c2c(F)cc(F)cc2F)c(Cl)nc2ncnn12 (centres undefined),101
24,CCCCCCCCOCCCN=C=O,74 to 76
25,CCOc1ncc(Br)cc1C(=O)O,122 to 124
26,COC(=O)NC=Cc1ccc(OCC(O)CNC(C)C)cc1 (centres undefined),128 to 129
27,COc1cc(C)c(/C=C/c2nc3c([nH]2)c(=O)n(C)c(=O)n3C)cc1C,> 280
28,CCCCCCCCCCCCCCCCC(COC(C)=O)(COC(C)=O)NC(C)=O,84 to 86

row,SMILES,melting point [°C]
1,O=S(=O)(F)c1ccc(OCc2ccccc2)nn1,85 to 86
2,CC(C)Cn1c(CN)nc2c(N)nc3ccccc3c21,287 to 291
3,CC(C)(C)c1cc(-c2ccc([N+](=O)[O-])cc2)cc(C(C)(C)C)c1O,157 to 160
4,O=C1C=C2CCCCC2N1c1ccc(OCCN2CCCCC2)c(Cl)c1 (centres undefined),98
5,CC(C)CCCCCCCC=CC1CC(=O)N(NC(=O)CCc2cc(C(C)(C)C)c(O)c(C(C)(C)C)c2)C1=O (centres undefined),62 to 68
6,Cc1cc(S(C)(=O)=O)c(S(C)(=O)=O)cc1C(=O)O,234 to 235
7,COc1ccc2cccc(C(CNC(=O)CF)COS(C)(=O)=O)c2c1 (centres undefined),122 to 124
8,CC1CSC2=C(O1)c1cc(N3CCCCC3)ccc1C(=O)C2=O (centres undefined),225 to 226
9,O=C(NCC1CCN(C[C@H]2COc3ccc(Cl)cc3O2)CC1)c1cccnc1,172 to 174
10,CNc1cc(NS(=O)(=O)c2cccc(Cl)c2)nc(NC)n1,167 to 168
11,CCCc1c(OCCCCCC(=O)c2cc(C)c(OC)c(OC)c2C)ccc(C(=O)O)c1O,92 to 94
12,CCOc1ccc(OCCCCCN2CCN(c3nccs3)CC2)cc1,79 to 81
13,Cc1cccc2c1C(=O)CC2=O,125 to 128
14,CC(C)(C)C(=O)C1CCCS1(=O)=O (centres undefined),53 to 56
15,Cc1nc2cc(-n3cccc3)ccc2s1,91 to 96
16,O=C1c2cc(Cl)c(Cl)cc2C(=O)c2c1c(Cl)c1cc(Cl)c(Cl)cc1c2Cl,> 260
17,CCc1c(C#N)oc2ccc(Br)cc12,68 to 69
18,Cn1nc(-c2ccc(Cl)cc2F)cc1O,204
19,CCCOc1ccc(F)cc1-c1ccc(C#N)c(=O)[nH]1,242 to 243
20,COc1cc(Nc2c(C#N)cnc3cc(Br)ccc23)c(Cl)cc1C,215 to 217
21,CS(=O)(=O)N[C@@H]1CCCC[C@H]1OCC(=O)O (relative stereo),119 to 121
22,NC(=O)N1CCC(OCCN2CCCCC2)C1 (centres undefined),134 to 136
23,CC(Cc1ccc2c(c1)OCO2)C(=O)O (centres undefined),121
24,COC(=O)c1nccnc1NCc1ccncc1,95
25,Cc1cc(C)n(-c2nc(Nc3ccc(Cl)cc3)cnc2CN)n1,173 to 176
26,CCCc1ccc(OC)c(-c2csc(NC(=O)NN3CCN(CCCN4CCOCC4)CC3)n2)c1,229
27,CCSc1cc(C)nc(SCC)c1NC(=O)CCCCSc1nc2cccc(C(F)(F)F)c2o1,155 to 156

# The remaining lines, values ahead:
row,melting point [°C],SMILES
1,204 to 205,COC(=O)COc1ccc(C(=O)Nc2ccccc2Sc2ccccc2-c2nnn[nH]2)cc1
2,108 to 110,CCCn1c(=O)c2c(NC(C)=O)n[nH]c2n(Cc2ccccc2)c1=O
3,128 to 131,O=C(CC(=O)C(F)(F)F)Nc1cc(-c2ccccc2Br)n[nH]1
4,215 to 218,CCc1cccc(CC)c1NC(=O)NC1(c2ccccc2)CCCC1
5,189 to 191,CCOC(=O)n1c(C(=O)c2cccc(Cl)c2)c(NC(=O)CC)c2ccc(Cl)cc21
6,84 to 86,COc1ccc(P2(=O)c3ccccc3CN2c2ccccc2)cc1OC (centres undefined)
7,125 to 128,Nc1ccc(OCc2nc3cc(F)ccc3s2)cc1
8,65 to 66,CCOC(=O)CCCCC(=O)c1ccc2cc(OCCC(C)C)ccc2c1
9,74 to 75,COc1ccc(-c2cccc3ccsc23)cc1
10,132 to 135,CCOC(=O)N(CC)c1cccc(-c2ccc3nnc(C)n3n2)c1
11,210 to 214,CCn1c(=O)c(-c2c(Cl)cccc2Br)cc2cnc(Nc3ccccc3)nc21
12,79 to 80,Cc1cc(SCc2cc(-c3ccc(Cl)cc3)on2)ccc1OCC(=O)O
13,78 to 80,CN1C(=O)CC[C@]2(C)c3ccc(SCc4nc5ccccc5s4)cc3CC[C@@H]12
14,183 to 185,c1ccc(-c2cn3c(n2)sc2cnccc23)cc1
15,144 to 146,Cc1ccccc1N1CCc2c(C)nc3c(O)cccc3c21
16,206 to 208,CC(C)(COc1ccc(Cl)cc1)C(=O)C(Oc1ccc(Cl)cc1)n1cncn1 (centres undefined)
17,200 to 205,O=C(O)Cc1c(Cl)nc(-c2ccccc2)n1Cc1cc([N+](=O)[O-])ccc1Cl
18,116 to 118,CC(C)(CO)NC(=S)NC(=O)c1ccccc1
19,270 to 271,CN1CCN2C(=O)Nc3ccc(Cl)cc3C12c1ccccc1 (centres undefined)
20,267 to 268,CC(=O)N(C)Nc1ccc(CCn2cnc3cc(-c4ccc(Cl)cc4)sc3c2=O)cc1
21,191 to 193,CC(=O)Nc1ccc(Sc2c(-c3ccc(S(C)(=O)=O)cc3)cnn(CC(F)(F)F)c2=O)cc1
22,69 to 71,OCc1c[nH]c(Sc2ccccc2)c1
23,93 to 95,COCCCNc1c([N+](=O)[O-])cnc2ccccc12
24,178 to 179,COc1ccc(S(=O)(=O)n2ccc3ccnc(-c4ccc([N+](=O)[O-])cc4)c32)cc1
25,94 to 95,Cc1c(-c2ccccc2)oc2c(C(=O)NCCCN3CCN(c4cccc5c4OCC5)CC3)cccc2c1=O

row,melting point [°C],SMILES
1,92 to 93,CCN(CC)C(=O)c1ccoc1-c1ccc2ccccc2c1
2,200,CCON=C(C(=O)O)c1csc(NC(c2ccccc2)(c2ccccc2)c2ccccc2)n1
3,149 to 152,O=C1c2ccccc2C(=O)N1CCCOc1cccc([N+](=O)[O-])c1
4,104 to 106,CC(=O)N[C@@H](c1ccccc1)[C@@H](O)C(=O)OC(C)C
5,168 to 171,O=C(O)CCCC(=O)Oc1cccc(-c2cn3c(n2)sc2ccccc23)c1
6,147 to 148,CCCCSc1cc(C(=O)O)cc([N+](=O)[O-])c1-c1ccccc1
7,83 to 85,CN(C)CCOc1ccc(C2(c3ccccc3)OCCC2c2ccccc2)cc1 (centres undefined)
8,144 to 145,CC(CS(=O)(=O)c1ccc(Oc2ccc(Cl)cc2)cc1)N(O)C=O (centres undefined)
9,> 250,CS(=O)(=O)Nc1cc2oc(N)c(C(N)=O)c(=O)c2cc1Oc1ccccc1
10,116 to 120,CCC(CC)C(NS(=O)(=O)c1cc(Cl)c(Cl)s1)c1ccnn1-c1ccccc1 (centres undefined)
11,98,CC(C)N(C(=O)c1ccc(F)cc1)C1CCN(Cc2ccccc2)CC1
12,> 270,COC(=O)c1sc2c(c1N)c1ccccc1c(=O)n2-c1ccccc1
13,141 to 144,OC(c1ccccc1)C(NCc1ccco1)c1ccccc1 (centres undefined)
14,120 to 123,N#Cc1cccc(C(CC(=O)c2ccc(F)cc2)CC(=O)c2ccc(F)cc2)c1
15,125,CC(=O)CC(=S)Nc1ccccc1
16,61.4,O=c1nc(-c2cccc(Cl)c2)c2cc(C(c3ccc(Cl)cc3)n3ccnc3)ccc2n1Cc1ccncc1 (centres undefined)
17,114 to 115,COc1ccc(C(=O)Nc2c(Cl)cncc2Cl)cc1OCCCCCCCCCCCc1ccccc1
18,116 to 118,O=C1c2ccc(O)cc2C(=O)N1c1ccccc1
19,159 to 160,O=C(O)CCc1ccc(C=CC(=O)c2ccccc2)cc1
20,136 to 138,C=CCc1cn(C(c2ccccc2)(c2ccccc2)c2ccccc2)c(F)n1
21,164 to 165,CCCc1nc2c(N)nc3cc(-c4ccccc4)ccc3c2n1CCCON=C(C)C
22,93 to 94,CCC(O)(c1ccccc1)c1ccccc1
23,274 to 276,O=C1c2ccc3c4cccc5cccc(c6ccc(c2c36)C(=O)N1CCCCCO)c54
24,298 to 299,O=C(O)c1ccc2c(c1)Cc1ccccc1O2

# Source: a melting point compilation (Tetko et al.; mined from patent text by program, amines drawn as free bases though some values may be those of a salt)
